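A five-concentration, 48-hour dose response in 96-well plates underlies each endpoint, interpolated linearly between surrounding concentrations. The concentration for 50% growth inhibition is given as GI50.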 The source made the active and inactive calls. No stated cut-off is given here; in the data, active = GI50 up to about 1.1 µM and inactive = higher.
Tests used:
Assay in all cases: NCI-60 cell line screen, 48 h
786-0 = test system: 786-0
A498 = test system: A498
CCRF-CEM = test system: CCRF-CEM
EKVX = test system: EKVX
HCC 2998 = test system: HCC 2998
Hs-578T = test system: Hs-578T
MDA-MB-231 = test system: MDA-MB-231
MOLT-4 = test system: MOLT-4
Malme-3M = test system: Malme-3M
NCI-H460 = test system: NCI-H460
OVCAR-5 = test system: OVCAR-5
RXF 393 = test system: RXF 393
SF-295 = test system: SF-295
SK-MEL-5 = test system: SK-MEL-5
SNB-19 = test system: SNB-19
SR = test system: SR
SW-620 = test system: SW-620
T47D = test system: T47D
UO-31 = test system: UO-31
OVCAR-3 = test system: OVCAR-3

Measured: GI50

CC(=O)NC(=N/N=C1/C(=O)Nc2ccc(C)cc21)NC(C)=O
inactive: 786-0 > 100 µM | A498 > 100 µM | CCRF-CEM > 100 µM | EKVX > 100 µM | HCC 2998 > 100 µM | Hs-578T > 100 µM | MDA-MB-231 > 100 µM | MOLT-4 > 100 µM | Malme-3M > 100 µM | NCI-H460 > 100 µM | OVCAR-5 > 100 µM | RXF 393 68.1 µM | SF-295 52.1 µM | SK-MEL-5 > 100 µM | SNB-19 > 100 µM | SR > 100 µM | SW-620 > 100 µM | T47D > 100 µM | UO-31 84.1 µM

COc1cc2c(c(O)c1OC)C(=O)C1CCC(=O)N1C2c1cccc2ccccc12 (configuration not stated)
inactive: 786-0 > 100 µM | A498 > 100 µM | CCRF-CEM 18.5 µM | EKVX 37.5 µM | Hs-578T 82.6 µM | MDA-MB-231 23.8 µM | MOLT-4 21.4 µM | Malme-3M 81.8 µM | NCI-H460 32.3 µM | OVCAR-3 30.6 µM | OVCAR-5 94.4 µM | RXF 393 21.4 µM | SF-295 43.2 µM | SK-MEL-5 31.6 µM | SNB-19 41.9 µM | SR 26.5 µM | SW-620 39.7 µM | T47D 36.6 µM | UO-31 31.3 µM

c1ccc(C2OCC(OC3CCCCO3)CO2)cc1 (configuration not stated)
inactive: 786-0 > 100 µM | A498 > 100 µM | CCRF-CEM > 10 µM | EKVX > 100 µM | HCC 2998 > 100 µM | Hs-578T 2.36 µM | MDA-MB-231 > 100 µM | MOLT-4 5.24 µM | Malme-3M > 100 µM | NCI-H460 > 100 µM | OVCAR-3 > 100 µM | OVCAR-5 > 100 µM | SF-295 > 100 µM | SK-MEL-5 > 100 µM | SNB-19 > 100 µM | SR > 100 µM | SW-620 > 100 µM | T47D > 100 µM | UO-31 75.5 µM

c1ccc(/N=c2/[nH]c3ccccc3s/c2=N/c2ccccc2)cc1
inactive: 786-0 > 100 µM | A498 > 100 µM | CCRF-CEM > 100 µM | EKVX > 100 µM | HCC 2998 42.7 µM | Hs-578T > 100 µM | MDA-MB-231 > 100 µM | MOLT-4 > 100 µM | Malme-3M > 100 µM | NCI-H460 28.1 µM | OVCAR-5 > 100 µM | RXF 393 48.4 µM | SF-295 > 100 µM | SK-MEL-5 > 100 µM | SNB-19 > 100 µM | SR > 100 µM | SW-620 > 100 µM | T47D 93.8 µM | UO-31 > 100 µM

C[C@@H]1C(O)CC[C@H](C)C12CC=CC2=O (some centres not stated)
inactive: 786-0 > 100 µM | A498 > 100 µM | EKVX > 100 µM | HCC 2998 > 100 µM | Hs-578T > 100 µM | MDA-MB-231 > 100 µM | MOLT-4 > 100 µM | Malme-3M > 100 µM | NCI-H460 > 100 µM | OVCAR-3 > 100 µM | OVCAR-5 > 100 µM | RXF 393 > 100 µM | SF-295 > 100 µM | SK-MEL-5 > 100 µM | SNB-19 > 100 µM | SR > 100 µM | SW-620 > 100 µM | T47D > 100 µM | UO-31 > 100 µM

O=C1Nc2cc([N+](=O)[O-])ccc2C(=O)N2CCC[C@@H]12
inactive: 786-0 > 100 µM | A498 > 100 µM | CCRF-CEM > 100 µM | EKVX > 100 µM | HCC 2998 > 100 µM | Hs-578T > 100 µM | MDA-MB-231 > 100 µM | MOLT-4 > 100 µM | NCI-H460 > 100 µM | OVCAR-3 > 100 µM | OVCAR-5 > 100 µM | RXF 393 > 100 µM | SF-295 > 100 µM | SK-MEL-5 > 100 µM | SNB-19 > 100 µM | SR > 100 µM | SW-620 > 100 µM | T47D > 100 µM | UO-31 > 100 µM

CCOc1cc(/C=N/c2ccc(Oc3ccc(Cl)cc3)c(Cl)c2)ccc1O
inactive: 786-0 17 µM | A498 12.4 µM | CCRF-CEM 16.1 µM | EKVX 18.5 µM | HCC 2998 19.3 µM | Hs-578T 18.8 µM | MDA-MB-231 19.6 µM | MOLT-4 18.7 µM | Malme-3M 23.3 µM | NCI-H460 18.6 µM | OVCAR-3 29.6 µM | OVCAR-5 28.1 µM | SF-295 18.7 µM | SK-MEL-5 22.3 µM | SNB-19 25.2 µM | SR 33.2 µM | SW-620 29.6 µM | T47D 36.3 µM | UO-31 11.8 µM

N#CC1=C(S)N(C2OC(CO)C(O)C(O)C2O)C(c2ccccc2)=CC1c1ccccc1 (configuration not stated)
inactive: 786-0 37.9 µM | A498 59.3 µM | CCRF-CEM 37.2 µM | HCC 2998 18.5 µM | Hs-578T 41.5 µM | MDA-MB-231 64.3 µM | MOLT-4 29.8 µM | Malme-3M 52.1 µM | NCI-H460 37.6 µM | OVCAR-3 28.3 µM | OVCAR-5 > 100 µM | RXF 393 25.2 µM | SF-295 34.3 µM | SK-MEL-5 19.8 µM | SNB-19 64.6 µM | SR 35 µM | SW-620 5.66 µM | T47D 18.2 µM | UO-31 > 100 µM

— ChEMBL document CHEMBL1201862, “PubChem BioAssay data set” (2004)
